SMILES strings stand for the structures. Read-outs that look alike come from different tables or passages of the source.

The subject of test [1] is anthranilate synthase (crude callus extracts: AB108 control, K17 line of C28). The test is described as follows: Anthranilate synthase assay with 5MT as enzyme inhibitor. The test is classed as biochemical, maize. As to conditions: 30° C., 30 minutes, 0.25 mM chorismate, 20 mM L-glutamine; FIG. 4. The procedure: Assays were conducted to determine whether 5MT resistance was conferred by an alteration in the gene that codes for the anthranilate synthase enzyme. Crude enzyme extract of AB108 control callus and the selected K17 line of C28 callus were prepared as described below. The K17 line of C28 was derived from a regenerated C28 plant crossed with a control plant and then self-pollinated. Immature embryos were then cultured and a callus line developed as described previously.
Plant callus tissue was ground using a mortar and pestle and extracted with 0.2 M Tris-HCl, pH 8.2, 60% glycerol, 0.2 mM dithiothreitol (DTT), 0.2 mM ethylenediaminetetraacetic acid (EDTA), 1.0 mM magnesium sulfate (MgSO4), 20 mM sodium chloride (NaCl) and 1.0 mM L-tryptophan. One ml extraction buffer was used per 2 g callus. The extract was centrifuged at 10,000×g for 25 minutes at 4° C. The supernatant was applied to a 3 cm×15 cm Bio Gel-P6 column (Bio-Rad, Richmond, Calif.) equilibrated with 0.1 M Tris-HCl, pH 7.6, 10% glycerol, 0.1 mM DTT and 0.1 mM EDTA and eluted with the same buffer. 0.75 ml fractions were collected and fractions containing protein were pooled. […]
Assays were conducted in 1 ml volumes as follows. […] The fluorescence due to the production of anthranilate was measured in the 3.5 ml extractant using a Kratos FS950 fluorimeter (Kratos Analytical Instruments, Ramsey, N.J.).

Test [2] relates to maize line C28 callus. The experiment in a line: Four week callus growth inhibition study, resistant line C28. The format is cell-based. The procedure: (§1) The tryptophan analog, 5-methyltryptophan (5MT), was used for selection of tryptophan overproducer mutants as discussion in Section 5 supra. The effect of various concentrations of 5MT on callus growth on solid media was determined. Quantities of tissue averaging 50 mg in size were transferred to nutrient agar maintenance media containing 5MT concentrations ranging from 1.0 to 200 μM. Four tissue pieces were placed on each plate with four plates per analog concentration. After 28 days growth, the tissue was weighed again.
For each transfer all tissue showing growth and somatic embryo forming ability were placed on fresh media. At the third transfer, the concentration of 5MT was increased to 100 μM. During the course of the selection process, the total number of lines decreased as the analog mediated growth inhibition became more intense. Two lines however, increased in size and by the end of the fourth month of selection were identified as resistant to 5MT. These cell lines were identified as maize line C28 and C66. […]
Four week growth inhibition studies were carried out with 5MT as described supra. The level of 5MT giving 50% growth inhibition was determined to be between 300 and 400 μM for the C28 line compared to 3 to 10 μM for unselected parent tissue. […]

In test [3] the test system is maize line C66 callus. The test is described as follows: Callus growth inhibition study, resistant line C66. The format is cell-based. As to conditions: C66, 5MT at 100 μM or below. The procedure:
as §1
For each transfer all tissue showing growth and somatic embryo forming ability were placed on fresh media. At the third transfer, the concentration of 5MT was increased to 100 μM. During the course of the selection process, the total number of lines decreased as the analog mediated growth inhibition became more intense. Two lines however, increased in size and by the end of the fourth month of selection were identified as resistant to 5MT. These cell lines were identified as maize line C28 and C66. […] Throughout this selection process, the selected cell lines maintained a friable appearance that was similar to the appearance of the original parent cell line.

Test [4] has as its system maize callus tissue (unselected parent, A188 x B73). The test is described as follows: Callus culture growth inhibition by 5MT, unselected parent tissue. The test is classed as cell-based. The settings on record: for IC50: Zea mays, 672 h. The protocol: Friable, embryogenic maize callus cultures were initiated from hybrid immature embryos produced by pollination of inbred line A188 plants (University of Minnesota, Crop Improvement Association) with pollen of Inbred line B73 plants (Iowa State University). Ears were harvested when embryos had reached a length of 1.5 to 2.0 mm. The whole ear was surface sterilized in […] commercial bleach (2.63% w/v sodium hypochlorite) for 20 minutes at room temperature. The ears were then washed with sterile distilled, deionized water. Immature embryos were aseptically isolated and placed on nutrient agar initiation/maintenance media with the root/shoot axis exposed to the media. Initiation/maintenance media consisted of N6 basal media (Chih-ching in Proceedings of Symposium on Plant Tissue Culture, May 25-30, 1978, Science Press, Peking, pp. 43-50) with 2% (w/v) sucrose, 1.5 mg per liter 2,4-dichlorophenoxyacetic acid (2,4-D), 6 mM proline, and 0.9% (w/v) agar.
The immature embryos were incubated at 26° C. in the dark. Cell proliferations from the scutellum of the immature embryos were evaluated for friable consistency and the presence of well defined somatic embryos. Tissue with this morphology was transferred to fresh media 10 to 14 days after the initial plating of the immature embryos. The tissue was then subcultured on a routine basis every 12 to 16 days. Sixty to eighty milligram quantities of tissue were removed from pieces of tissue that had reached a size of approximately one gram and transferred to fresh media. Subculturing always involved careful visual monitoring to be sure that only tissue of the correct morphology was maintained. The presence of the somatic embryos ensured that the cultures would give rise to plants under the proper conditions.
as §1

As to `Cc1ccc2[nH]cc(C[C@H](N)C(=O)O)c2c1` [5MT, 5-methyltryptophan], the “Fold higher 5MT level needed for 50% inhibition of C28 AS compared with control AS” value in test [1] turned out to be 10 fold. Besides, the “Growth inhibition by the analog compared to parental cell line AB1 (FIG. 2)” value is given as “no longer seriously inhibited” in test [2] (C28, 5MT at 100 μM or below) and “no longer seriously inhibited” in test [3]. For the same compound, the IC50 in test [2] (Zea mays, 672 h, C28 line, four week growth inhibition, read-out: Level of 5MT giving 50% growth inhibition) lay within 300 to 400 µM; in test [4] (callus on solid maintenance media, 28 days growth, 1.0 to 200 μM 5MT, read-out: 5MT concentration giving half maximal inhibition of growth rate), 3 to 10 µM; in test [4] (unselected parent tissue, four week growth inhibition, read-out: Level of 5MT giving 50% growth inhibition) it was 3 to 10 µM. For the same compound, in test [4] (analog concentrations of 100 and 200 μM, 28 days), the Cell death entry is reported as “Cell death was observed”.

As for `N[C@@H](Cc1c[nH]c2ccccc12)C(=O)O` [Tryptophan], the “Reversal of growth inhibitory effects of 5MT” value in test [4] (tryptophan added to 5MT-inhibited callus) is listed as “reverse all the growth inhibitory effects of 5MT”.

The values are drawn from patent US4581847A, “Tryptophan overproducer mutants of cereal crops” (Molecular Genetics Research and Development, priority 1984, dated 1986).
